88 molecules from a melting point compilation (Tetko et al.; mined from patent text by program, amines drawn as free bases though some values may be those of a salt) can be followed below.

One may read the melting point as the temperature of the solid-liquid transition.

Some results are limits rather than exact numbers.

`Brc1ccc(C2CCN(C3CCC3)CC2)nc1` had a melting point of 122 to 124 °C.

Regarding `COC(=O)c1ccc(Cc2cc3cc(C(F)(F)F)ccc3n2S(=O)(=O)c2ccc(C(C)C)cc2)cc1`, the melting point was found to be 123 °C.

For `O=C1Nc2ccccc2CCC1NC(CCc1ccccc1)C(=O)OCc1ccccc1` (stereo not drawn), the melting point fell in the range of 139 to 141 °C. For `Oc1nnc(-c2ccc(CN3CCCCCC3)s2)o1` the value was 117 to 119 °C; for `O=c1ccn2c(c1O)C(c1ccc(Cl)cc1)OCC2` (stereo not drawn), 211 to 214 °C; for `CCN1C(=O)C(C)(C)N=C(c2ccccc2Cl)c2cc([N+](=O)[O-])ccc21`, 178 °C. As for `COc1cc(C=O)cc(-c2cc3c(cc2F)c(=O)c(C(=O)O)cn3C2CC2)c1OC`, the figure is greater than 230 °C.

The molecule `CCCCCCCCC(=O)N(C)O` returned a melting point of 29 °C. For `NC(=O)c1ccc(C(F)(F)F)cc1-c1cnccc1Oc1cccc(CCC(=O)N2CCN(Cc3ccc4c(c3)OCO4)CC2)c1` the value was 140 to 141 °C.

The molecule `COc1cc(CON=C(CCC(=O)O)c2ccccc2)cc(OC)c1OCc1nc(-c2ccccc2)oc1C` had a melting point of 89 to 90 °C.

`N#Cc1c(O)[nH]c2cccnc12` displayed a melting point greater than 250 °C.

In the case of `CCOc1cc2cc3c(Nc4cc(OC)c(Cl)cc4C)c(C#N)cnc3cc2cc1OCCCl`, the melting point was 129 to 130 °C.

In turn, `Cn1nnc(-c2[nH]c3ccccc3c2Cl)n1` displayed a melting point of 197 to 199 °C.

In turn, `Cc1nc2c(cc1C(=O)NC(=N)N)CCCCC2O` (stereo not drawn) returned a melting point of 207 to 210 °C. Molecule `CCCCCC[C@@H]1C[C@H](c2ccc(OC)cc2)C(=O)O1` showed a melting point of 35 to 36 °C.

`CC1(C)c2ccc(CCN3CCN(c4nsc5ccccc45)CC3)cc2C(C)(C)C1O` (stereo not drawn) yielded a melting point of 47 to 49 °C. Turning to `O=C(O)COc1ccc2c(-c3ccc(O)cc3F)noc2c1Cl`, the melting point fell in the range of 216 to 218 °C. As for `CCOC(=O)c1[nH]cc2c1NC1=C(C(=O)CCC1)C2c1ccc(Sc2nc3cccnc3[nH]2)o1` (stereo not drawn), the figure is 190 to 202 °C; as for `COc1cc(COc2nn(-c3ccccc3)cc2/C=C/C(=O)N2CCOCC2)ccc1OCc1nc(-c2ccco2)oc1C`, 180 to 181 °C; as for `Cc1nc2ccc3cccnc3c2nc1C`, 159 to 162 °C. For `CCCCOC(=O)n1nc(-c2cc(Cl)c(C)c(Cl)c2)ccc1=O`, the melting point lay in the range of 153 to 157 °C.

The molecule `CC(C)(C)OC(=O)N1CCC(Cc2ccc(Cl)cc2)(C(=O)O)CC1` showed a melting point of 179 to 180 °C. `O=C(NCCN1C=CC(c2ccccc2)=CC1)c1ccccc1S(=O)(=O)O` showed a melting point of 272 to 274 °C. `C#Cc1cnc2c(C)cc(OC(SC)C(=O)NC(C)(C#N)CF)cc2c1` (stereo not drawn) gave a melting point of 180 to 182 °C. As for `COc1ccc(S(=O)(=O)N2CSCC2=O)cc1`, the figure is 129 to 130 °C. For the molecule `CCOC(=O)c1ccn2nc(-c3ccccc3)cc2n1`, the melting point lay in the range of 180 to 181 °C. As for `O=C(NC(Cc1ccccc1)C(=O)O)c1ccc(-c2ccc(OCc3ccccc3)cc2)nc1` (stereo not drawn), the figure is 240 °C; as for `CN(C)CCn1c(=O)c2ccc(N)cc2c2cnc3cc4c(cc3c21)OCO4`, 300 to 301 °C; as for `Nc1cc(F)ccc1C(=O)C1CCN(CCn2c(=O)[nH]c3ccccc3c2=O)CC1`, 270 °C. As for `OC1c2ccccc2CSc2ccc(Br)cc21` (stereo not drawn), the figure is 169 to 170 °C; as for `CC(C)(C#N)NC(=O)c1ccccc1Cl`, 59 to 65 °C; as for `N#C/C(=C\c1cc(O)c(O)c(I)c1)C(=O)NCc1ccccc1`, 220 °C.

Turning to `Cc1cc(SCc2cccc3nc(-c4ccc(C(F)(F)F)cc4)sc23)ccc1OCC(=O)O`, the melting point is 193 to 196 °C. `NC(=O)c1cc(NCc2ccccc2Cl)c([N+](=O)[O-])cc1[N+](=O)[O-]` had a melting point of 158 to 161 °C. For `CCOC(=O)c1c(CC(=O)O)n(-c2ccc(OC(F)(F)F)cc2)c2ccc(Oc3ncccc3C(N)=O)cc12` the value was 128 to 130 °C. In turn, `COc1cc(Nc2c(C#N)cnc3cc(OCc4ccccc4)c(OC)cc23)c(Cl)cc1Cl` displayed a melting point of 198 to 200 °C. Turning to `COC=C(C(=O)OC)n1ccc2ccc(-c3csc(-c4ccccc4)n3)cc21`, the melting point is 145 to 146 °C. For `O=C(Cn1cnnn1)N(O)CCCP(=O)(O)O` the value was 157 to 159 °C; for `O=C(NC(Cc1c[nH]c2ccccc12)C(=O)OCc1cccc(C(F)(F)F)c1)c1ccccc1` (stereo not drawn), 118 °C; for `c1ccc2c3c([nH]c2c1)CCS3`, 152 to 155 °C. As for `CC(=O)O[C@H]1CC[C@H](CCCCCCC(=O)O)CC1`, the figure is 66 to 68 °C; as for `CC(=O)Nc1c(C(N)=O)n[nH]c1C(C)C`, 162 to 164 °C. Regarding `O=C1C(=O)N(C(c2ccccc2)c2ccccc2)c2c(Cl)cccc21`, the melting point was 172 to 173 °C. For `CSc1nnc(C(N)(c2ccc(Cl)cc2)c2ccc3c(c2)c(-c2cccc(Cl)c2)nc2nnnn23)n1C` (stereo not drawn) the value was 150 °C; for `CCOC(=O)C1=C(C)N(CCOC(=O)c2ccccc2)C(=O)NC1c1ccc(OC)cc1` (stereo not drawn), 75 °C. For `CC(C)C[C@H](NC(=O)[C@H](Cc1c[nH]cn1)NC(=O)[C@H](Cc1cccc2ccccc12)NC(=O)OCc1ccccc1)[C@@H](O)CC(=O)OCc1ccccc1` the value was 102 to 109 °C; for `CCN(CC)Cc1ccc2[nH]c(-c3ccccc3F)cc(=O)c2c1`, 184 to 185 °C. In the case of `CCOC(=O)c1ccc(N(C(=O)OC(C)(C)C)N(C)C(C)=O)cc1`, the melting point was determined as 82 °C. Consider `O=C1C=C2CN(C(C(=O)C3CC3)c3ccccc3F)CCC2S1` (stereo not drawn), for which the melting point is 123 to 125 °C. As for `CC(C)OC(=O)Nc1cccc(-c2ccnc3c(C(=O)c4ccccc4)cnn23)c1`, the figure is 116 to 118 °C; as for `CCOc1ccc(C(=O)Nc2ccc(C(C)(C)C#N)cc2)cc1OCC`, 138 to 140 °C. As for `Cc1ccccc1C(=O)Nc1nc2ccccc2c(=O)n1C`, the figure is 185 to 186 °C; as for `O=C(O)CCCCCOc1cccc(CCCCCCOc2ccc3c(c2CCCc2ccccc2)OCCC3=O)c1CCC(=O)O`, 97 to 98 °C; as for `O=Cc1ccc(-c2ccc3ncnc(Nc4ccc(OCc5cccc(F)c5)c(Cl)c4)c3c2)cc1`, 237 to 238 °C. `COc1ccc(C(=O)Nc2ccccc2)cc1NCc1cccc(F)c1F` had a melting point of 134 to 135 °C. `COc1ccc2[nH]c(C(F)(F)F)cc2c1` gave a melting point of 60 °C. With `Cc1c(Cc2ccc(C(C)C)cc2)c2c(c(C)c1NC(=O)CC(C)(C)C)C(C)CO2` (stereo not drawn), the melting point fell in the range of 185 to 186 °C. In the case of `CN(C)c1snc(OCC#CI)c1C#N`, the melting point lay in the range of 171 to 172 °C. For `N#Cc1ccc(Nc2nc(Cl)ccc2[N+](=O)[O-])cc1` the value was 175 to 178 °C; for `COc1nnc(-c2cc3c([nH]c2=O)CCN(Cc2ccccc2)C3)o1`, 176 to 178 °C; for `CCCCCCCCCCCCCCCC(=O)CC(=O)OCC`, 37 to 38 °C. As for `O=[N+]([O-])c1cccc(-c2nc(Nc3cccc(Cl)c3)c3cc[nH]c3n2)c1`, the figure is greater than 250 °C. For `CCCn1cnc(C(N)=O)c1N` the value was 241 to 243 °C; for `CCOC(=O)C1=C(N)NC(C)=C(C(C)=O)C1c1cccc([N+](=O)[O-])c1` (stereo not drawn), 217 °C; for `Cc1csc2nc(COc3ccccc3)cn12`, 190 to 192 °C.

In the case of `C[C@H](O)CCC[C@H](O)CCCCCc1cc(O)cc(O)c1C(=O)O`, the melting point fell in the range of 116 to 118 °C. As for `CCOC(=O)c1cnc2c(S)cccn2c1=O`, the figure is 151 to 152 °C; as for `COc1cc2c(c(Cl)c1Cl)SC(c1ccccc1)C2=O` (stereo not drawn), 228 to 229 °C; as for `CCOc1ccc(C2SC(=N)NC2=O)c(OCC)c1` (stereo not drawn), 179 to 181 °C. For `O=C(O)CCCN(C(=O)c1ccc(Cl)cc1)c1ccccc1-c1ccccc1` the value was 135 to 137 °C; for `NCCCCn1ccnc1-c1ccccc1`, 82 to 84 °C; for `COC(=O)C1=C(C)NC(c2ncsc2Cl)=NC1c1ccc(F)cc1Cl` (stereo not drawn), 98 to 100 °C. For `CCOC(=O)CC(NC(=O)c1cc(N)ccc1OCCOC)c1ccccc1` (racemic) the value was 105 to 106 °C. For `Cn1c(-c2ccccc2)cc(O)c(C(=N)c2ccccc2)c1=O`, the melting point is 238 to 240 °C. For `Cc1nc2c(O[C@@H]3c4ccccc4C[C@H]3O)cccn2c1C=O` (relative stereo), the melting point fell in the range of 187 to 192 °C. In turn, `CC(C)c1cccc(C(C)C)c1NC(=O)[C@H](CCc1ccccc1)NC(=O)OC(C)(C)C` gave a melting point of 193 to 197 °C. With `Clc1nc(Cl)nc(N2CCc3ccccc32)n1`, the melting point was 254 to 256 °C. Turning to `CCCC(=O)Nc1cccc(C(c2c(O)c3c(oc2=O)CCCCCC3)C2CC2)c1` (stereo not drawn), the melting point was 222 to 224 °C.

Consider `O=C(Nc1ccc(-n2nc(C(F)(F)F)cc2C(F)(F)F)cc1)C1(O)CC1`, for which the melting point is 198 to 200 °C.

Turning to `CS(=O)(=O)Nc1ccc(F)c(C(=O)O)c1`, the melting point was in the range of 203 to 205 °C. Molecule `CCn1ccccc1=S` yielded a melting point of 50 °C.

The molecule `CCCNC(=O)NS(=O)(=O)c1cc2c(cc1OC)OCC(NC(=O)c1cc(Cl)ccc1OC)C2` (stereo not drawn) showed a melting point of 203 to 205 °C. As for `O=C(Nc1ncc(C(F)(F)F)o1)C1c2cc(F)ccc2Oc2ccc(F)cc21`, the figure is 232 °C. Take `Nc1nc2n(c(=O)c1N=O)CCN2Cc1ccc(Cl)cc1`: the melting point was 273 to 275 °C.

`CC(C)=NNc1cc2c(nn1)CCN(C(=O)c1ccc(Cl)cc1)C2` gave a melting point of 221 to 223 °C. For `Fc1ccc(N2CCN(CCCOc3cccc(-c4nnco4)c3)CC2)cc1` the value was 105 to 106 °C; for `CCCCCCCCc1ncc(-c2ccc(O)cc2)cn1`, 94 to 96 °C; for `CCOCCC(=O)OC1(C(=O)CO)CCC2C3CC(C)C4=CC(=O)C=CC4(C)C3C(O)CC21C` (stereo not drawn), 167 °C.
